Reference: the supplement of paper PMC11061612

Assays:
[1] = system: BFTC-909 (Kidney Carcinoma); experiment: Bliss excess, mean over the matrix (fraction); higher = more synergy
Outline: (§1)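 Cell lines grown in DMEM/F12 or RPMI with 10% FBS were plated in 1536-well plates and held 24 hours at 37°C, 5% CO2 before 72 hours of exposure to two-drug dose matrices, with DMSO typically at 0.2%. CellTiter-Glo 2.0 luminescence gave viability, which was converted to inhibition. Vehicle wells were set to 0 and blank wells to 1. Combination Emax is the second-highest inhibition in the matrix, and Bliss excess is the observed combination effect minus the expected EA + EB − EA·EB, where EA and EB are the single-agent effects.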

[2] = system: HuCCT1 (Biliary Tract Carcinoma); experiment: as above
Outline: as §1

[3] = system: NCI-H524 (Small Cell Lung Carcinoma); experiment: as above
Outline: as §1

[4] = system: OE21 (Esophageal Squamous Cell Carcinoma); experiment: as above
Outline: as §1

[5] = system: SAS (Oral Cavity Carcinoma); experiment: as above
Outline: as §1

A673 (Ewing's Sarcoma) = experiment: combination Emax (second highest fraction inhibited in the dose matrix, 72 h); higher = more inhibition; extreme values may be limits of the assay
Outline: as §1

[6] = system: ALL-PO (B-Lymphoblastic Leukemia); experiment: as above
Outline: as §1

[7] = system: BE-13 (T-Lymphoblastic Leukemia); experiment: as above
Outline: as §1

[8] = system: HuCCT1 (Biliary Tract Carcinoma); experiment: as above
Outline: as §1

[9] = system: HuH-7 (Hepatocellular Carcinoma); experiment: as above
Outline: as §1

[10] = system: KMRC-20 (Kidney Carcinoma); experiment: as above
Outline: as §1

[11] = system: KYAE-1 (Esophageal Adenocarcinoma); experiment: as above
Outline: as §1

[12] = system: L-428 (Hodgkin's Lymphoma); experiment: as above
Outline: as §1

LOXIMVI (Melanoma) = experiment: as above
Outline: as §1

[13] = system: LS-123 (Colorectal Carcinoma); experiment: as above
Outline: as §1

[14] = system: MHH-CALL-2 (B-Lymphoblastic Leukemia); experiment: as above
Outline: as §1

[15] = system: NCI-H1568 (Lung Adenocarcinoma); experiment: as above
Outline: as §1

[16] = system: NCI-H209 (Small Cell Lung Carcinoma); experiment: as above
Outline: as §1

[17] = system: NUGC-4 (Gastric Carcinoma); experiment: as above
Outline: as §1

[18] = system: OVCAR-5 (Ovarian Carcinoma); experiment: as above
Outline: as §1
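For Bliss excess, mean over the matrix in this document: after 72 h of two-drug dosing.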

Row | Compound | Bliss excess [1] | Bliss excess [2] | Bliss excess [3] | Bliss excess [4] | Bliss excess [5] | combination Emax (A673 (Ewing's Sarcoma)) | combination Emax [6] | combination Emax [7] | combination Emax [8] | combination Emax [9] | combination Emax [10] | combination Emax [11] | combination Emax [12] | combination Emax (LOXIMVI (Melanoma)) | combination Emax [13] | combination Emax [14] | combination Emax [15] | combination Emax [16] | combination Emax [17] | combination Emax [18]
1 | Cc1c2c(nn1C)CSCc1cc(n(C)n1)CSc1cc(c3ccccc3c1)OCCCc1c(C(=O)O)n(C)c3c-2c(Cl)ccc13 [AZD5991] + CN(C)CCCOc1ccc(-c2ccc3ncc4c(c3c2)n(C2CCOCC2)c(=O)n4C)cn1 [AZD0156] (first compound max 1 µM, 7x7, partner max 1 µM) | 0.0101 | -0.04 | 0.0301 | 0.0133 | 0.0142 | 0.438 | 1 | 0.445 | 0.286 | 0.252 | 0.218 | 0.177 | 0.23 | 0.363 | 0.162 | 0.985 | 0.401 | 0.544 | 0.238 | 0.251
2 | Cn1cnc2c(F)c(Nc3ccc(Br)cc3Cl)c(C(=O)NOCCO)cc21 [Selumetinib] + CCN(CCO)CCCOc1ccc2c(Nc3cc(CC(=O)Nc4cccc(F)c4)[nH]n3)ncnc2c1 [AZD2811] (first compound max 10 µM, 7x7, partner max 1 µM) | -0.0093 | 0.0066 | -0.0101 | 0.0238 | -0.0274 | 0.658 | 1 | 0.735 | 0.525 | 0.293 | 0.29 | 0.0661 | 0.235 | 0.683 | 0.425 | 0.888 | 0.207 | 0.431 | 0.472 | 0.507
3 | CC(=O)c1c(C)c2cnc(Nc3ccc(N4CCNCC4)cn3)nc2n(C2CCCC2)c1=O [Palbociclib] + Cc1c2c(nn1C)CSCc1cc(n(C)n1)CSc1cc(c3ccccc3c1)OCCCc1c(C(=O)O)n(C)c3c-2c(Cl)ccc13 [AZD5991] (first compound max 10 µM, 7x7, partner max 1 µM) | 0.0029 | -0.0461 | 0.0019 | -0.0088 | -0.0318 | 0.453 | 1 | 0.815 | 0.32 | 0.215 | 0.291 | 0.126 | 0.353 | 0.543 | 0.207 | 0.998 | 0.418 | 0.908 | 0.252 | 0.389
4 | CC1(C)CCC(CN2CCN(c3ccc(C(=O)NS(=O)(=O)c4ccc(NCC5CCOCC5)c([N+](=O)[O-])c4)c(Oc4cnc5[nH]ccc5c4)c3)CC2)=C(c2ccc(Cl)cc2)C1 [Venetoclax] + C1CN(CCC1(C(=O)N[C@@H](CCO)C2=CC=C(C=C2)Cl)N)C3=NC=NC4=C3C=CN4 [Capivasertib] (first compound max 1 µM, 7x7, partner max 3 µM) | -0.0292 | -0.0734 | -0.0624 | -0.009 | 0.0016 | 0.588 | 0.669 | 0.379 | 0.24 | 0.17 | 0.294 | 0.407 | 0.0426 | 0.247 | 0.34 | 0.106 | 0.133 | 0.456 | 0.121 | 0.262
5 | CS(=O)(=O)CCNCc1ccc(-c2ccc3ncnc(Nc4ccc(OCc5cccc(F)c5)c(Cl)c4)c3c2)o1 [Lapatinib] + C[C@@H](Oc1cc(-c2cnn(C3CCNCC3)c2)cnc1N)c1c(Cl)ccc(F)c1Cl [Crizotinib] (first compound max 10 µM, 7x7, partner max 10 µM) | -0.0651 | -0.068 | -0.037 | 0.0006 | -0.0346 | 0.808 | 1 | 0.988 | 0.883 | 0.925 | 0.916 | 0.842 | 0.913 | 0.977 | 0.746 | 1 | 0.952 | 0.927 | 0.808 | 0.834
6 | COc1nnc2ccc(N3CCC(c4ccc(OCCN5CCN(C)C(=O)[C@H]5C)cc4)CC3)nn12 [AZD5153] + CCN(CCO)CCCOc1ccc2c(Nc3cc(CC(=O)Nc4cccc(F)c4)[nH]n3)ncnc2c1 [AZD2811] (first compound max 1 µM, 7x7, partner max 1 µM) | 0.0272 | -0.0331 | -0.0138 | -0.0315 | -0.0499 | 0.616 | 1 | 0.92 | 0.498 | 0.463 | 0.414 | 0.0877 | 0.845 | 0.861 | 0.44 | 0.5 | 0.283 | 0.458 | 0.557 | 0.545
